Source: paper PMC6054100, “Exploring the chemical space of the lysine-binding pocket of the first kringle domain of hepatocyte growth factor/scatter factor (HGF/SF) yields a new class of inhibitors of HGF/SF-MET binding” (Chemical Science, 2015)
Like-named read-outs stand apart in the source and are kept apart here.

Experiments:
NK1 [1] = target: T1, NK1 (Homo sapiens, UniProt P14210); assay: SPR fragment library screening against NK1; assay type: binding; parameters: made in house; host or cells: Pichia pastoris; conditions: for Ranking order: based on fragment screening, rank among the 71 NK1 hits (ESI Tables S3-S7); for SPR response: normalised relative value against NK1
Method: Supplementary Materials and Methods
Fragment library screening and data analysis
Met567 (soluble truncated f ragment of the MET ectodomain, residues 25- 567), NK1 and t he SPH domain were immobilized on CM5 chips by amine coupling. NK1 was diluted into 10 m M phosphate pH 7.0 and the SPH domain into 10 mM acetate pH 5.5 to a final concentration of 2.5 μM and 1 μM, respectively, for coupling. The immobilization wizard within the Biacore T100 software was set to “aim for immobiliz ed level” of 8000 RU to achieve complete saturation of the chip surface.
W ith minor deviations, the procedure and conditions outlined below were used f or a ll screening s of an in-house fragment library of 1338 members against individual target proteins. The running buffer was PBS pH 7.4, 0.05% Tween 20, 0.25% DMSO (1% DMSO for Met567). Fragments were stored as 100 mM stock solutions in DMSO. Prior to screening, fragment samples were diluted to 500 μM (1 mM f or Met567) in running buffer.
Screening was performed in 96- we ll plates at a flow rate of 30 μl min-1 with 1 min sample injection f ollowed by dissociation f or 1 min and surf ace regeneration using 1 M NaCl f or 30 […]
post-regeneration baseline exceeded the pre- sample baseline by more than 10 RU, a second regeneration cycle with 50% ethylene glycol was used. In order to be able to correct for small variations in DMSO concentration between samples, eight solvent samples ranging from 0.012 to 1.5% DMSO were injected every 40th cycle. To monitor the binding capacity of the NK1, SPH and Met567 surfaces throughout the screening, injections of 500 μM HEPES (NK1), 0.25 μM Met567 (SPH) and 0.2 μM NK1 and 1% DMSO (Met567) were carried out every 40th cycle. The flow cell temperature was 25°C. NK1 and the SPH domain were immobilized on the same chip (channels 2 and 3 respectively) and were theref ore screened in parallel. Met567 was screened separately and results are published in an accompanying paper (W in t er et al. 2015, in revision).
For data analysis, fir st, all responses were reference and solvent corrected. 1 Next, equilibrium binding for every fragment was determined and hits established by applying several filters: sensorgram shape, upper and lower threshold. Typical sensorgrams from fragment screening show “square curves” in SPR due to the fast on and off rates and fragments not showing this response were discarded from further analysis. Binding levels are represented as response units (RU) but the SPR signal is a convolution of multiple parameters including target coupling density, target -binding activity, target molecular weight and molecular weight of each injected fragment. To be able to identif y hits accurately and to be able to compare responses between different plates and targets, data were normalised against these factors. First the theoretical maximum response for each fragment was calculated using equation 1:
RRmmm = CCCCCCCC ddCdCdd× MMffmCmdCd (Equation 1)
This RUmax value diff ers for each protein target because it depends on the molecular weight of the protein and the amount of protein immobilized on the chip (coupling density). The RUmax was then used to calculate the normalised relative SPR response:
NNNNNNNNNN NNNNr NrN SSR NNNrNrNN = RRcppppcppc× 100% (Equation 2) […]
fragment should cause upon binding. 100% response would be 1:1 binding wit h levels above 100% implying over-stoichiometric binding. […]
Fragment library screening to identify small molecule binders

NK1 [2] = target: T1, NK1; assay: SPR steady-state binding to immobilized NK1 (Biacore T100); parameters: made in house; host or cells: Pichia pastoris; conditions: read-out: KD
Method: Binding constants of piperazine-like compounds and fragments were determined using a Biacore T100 instrument. NK1 was immobilized on a CM5 chip by amine coupling to a density of 6000 RU. Compounds were stored as 100 mM stock solutions in water and serial dilutions were prepared in the running buffer (PBS pH 7.4, 0.05% Tween 20). The compound solutions were injected onto the surface of the chip at a flow rate of 30 μL min^–1, contact time was 1 min and dissociation time 1 min. Sensorgrams were analysed using the Biacore T100 evaluation software and the binding constants determined.

[3] = fragments 500 μM (ESI Tables S3-S7)
[4] = steady-state binding constant from SPR, fragment hits (Table 3, text)
[5] = initial fragment screening, fragments 500 μM (Table 3)
[6] = steady-state binding constant from SPR (ESI Tables S3-S7)
[7] = steady-state binding constant from SPR, MB605-related compounds (Table 4)

T1 sequence (P14210 32-210 isoform P14210-6 limits assumed): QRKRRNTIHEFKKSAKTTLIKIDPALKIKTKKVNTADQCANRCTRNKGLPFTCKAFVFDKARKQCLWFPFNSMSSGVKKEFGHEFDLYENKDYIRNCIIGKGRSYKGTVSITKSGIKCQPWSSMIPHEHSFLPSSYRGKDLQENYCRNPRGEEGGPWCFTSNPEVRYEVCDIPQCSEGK

SMILES | Ranking order (NK1 [1]) | SPR response (NK1 [1]; [3]) [%] | Kd (NK1 [2]; [4]) [µM] | SPR response (NK1 [1]; [5]) [%] | Kd (NK1 [2]; [6]) [µM] | Kd (NK1 [2]; [7]) [µM]
O=C(O)c1ccccc1C(=O)c1ccc(F)cc1 [MB900] | 69 | 28 |  |  |  | 
NC(=S)N1CCOCC1 [MB1082] | 43 | 53 | 370 ± 40 | 53 |  | 
COC(=O)c1scc(C)c1Cl [MB916] | 64 | 34 |  |  |  | 
COC(=O)c1ccccc1F [MB1253] | 11 | 98 |  |  | 2900 | 
Cc1nc(C(N)=S)cs1 [MB1252] | 10 | 101 |  |  | 5200 | 
FC(F)(F)c1cc[nH]n1 [MB925] | 48 | 52 |  |  | 1300 | 
CC(=O)NCc1cccnc1 [MB1317] | 35 | 60 |  |  |  | 
O=C(O)CCc1cc2ccccc2o1 [T5480685] |  |  |  |  |  | 700 ± 200
CC(=O)c1ccc(OC(F)(F)F)cc1 [MB1291] | 26 | 68 |  |  |  | 
NC(=O)c1ccc(-c2csnn2)cc1 [MB414] | 50 | 50 |  |  |  | 
Cc1ncsc1C(=O)O [MB996] | 56 | 38 |  |  |  | 
Cc1ccc(C#N)c(=O)[nH]1 [MB1260] | 8 | 105 |  |  | 5600 | 
CNCc1ccncc1 [MB1003] | 6 | 107 |  |  | 6400 | 
Cc1cc(N)n(C)n1 [MB935] | 41 | 54 |  |  | 1000 | 
Cc1cc(N)no1 [MB397] | 20 | 81 |  |  |  | 
Cc1nc(C#N)cs1 [MB1250] | 3 | 126 |  |  | 1800 | 
CSc1ccc(C(=O)O)s1 [MB1217] | 49 | 50 |  |  |  | 
Nc1ncccn1 [CA023] | 46 | 52 | 770 ± 60 | 52 |  | 
CCCc1ccc(C(C)=O)cc1 [MB1315] | 47 | 52 | 940 ± 90 | 52 |  | 
COC(=O)c1ccc(F)cc1Cl [MB1301] | 25 | 70 |  |  |  | 
N#CCOc1cccc(C(F)(F)F)c1 [MB1251] | 27 | 66 |  |  |  | 
Cc1noc(N)c1C [MB1136] | 55 | 39 |  |  |  | 
CCc1cccc(C(C)=O)c1 [MB1300] | 14 | 93 |  |  |  | 
CC(C)(N)CN1CCCC1 [MB1017] | 71 | 26 |  |  |  | 
O=C(O)CCc1ccc(-c2ccccc2F)o1 [T5445870] |  |  |  |  |  | 2100 ± 300
Nc1cccc(S(N)(=O)=O)c1 [MB409] | 59 | 36 |  |  |  | 
OC12CC3CC(CC(C3)C1)C2 [MB405] | 40 | 56 |  |  |  | 

SMILES | Ranking order (NK1 [1]) | SPR response (NK1 [1]; [3]) [%] | Kd (NK1 [2]; [4]) [µM] | SPR response (NK1 [1]; [5]) [%] | Kd (NK1 [2]; [6]) [µM] | Kd (NK1 [2]; [7]) [µM]
O=C(O)C1CCNCC1 [MB1129] | 67 | 30 |  |  |  | 
Cc1nc(C(C)(C)C)cs1 [MB887] | 32 | 62 |  |  |  | 
Nc1ccc(OC(F)(F)F)cc1 [MB1100] | 70 | 27 |  |  |  | 
CC1(C(=O)O)CC2C=CC1C2 (stereo not drawn) [MB385] | 42 | 54 |  |  |  | 
COC(=O)c1sc(C(C)(C)C)cc1N [MB914] | 63 | 34 |  |  |  | 
NC(=O)Cc1ccc(O)cc1 [MB1174] | 53 | 43 |  |  |  | 
N#CCCNCC1CCCO1 (stereo not drawn) [MB975] | 65 | 33 |  |  |  | 
Nc1cccc(OC(F)(F)F)c1 [MB406] | 54 | 42 |  |  |  | 
CC1CCN(C(=O)C2CCCCN2)CC1 (stereo not drawn) [MB1015] | 60 | 35 |  |  |  | 
CN(C)C(=O)C1CCOCC1 [MB1065] | 57 | 38 |  |  |  | 
COC(=O)CSc1ccccc1 [MB1308] | 34 | 60 |  |  |  | 
CN(C)C(=O)c1ccc2nccnc2c1 [MB1058] | 29 | 63 |  |  |  | 
Cc1csc(C(=O)O)c1 [MB921] | 52 | 49 |  |  |  | 
Cn1ccc(C(F)(F)F)n1 [MB926] | 66 | 30 |  |  |  | 
COc1cccc(OC)c1SC [MB894] | 51 | 49 |  |  |  | 
O=C(O)CCc1cccs1 [5928-51-8, 2-thiophenepropanoic acid] |  |  |  |  |  | 1100 ± 300
O=C(C1CCOCC1)N1CCCCC1 [MB1066] | 62 | 34 |  |  |  | 
CCOC(=O)c1cnc2n(c1=O)CCS2 [MB415] | 58 | 37 |  |  |  | 
O=C(C1CCCCO1)N1CCCC1 (stereo not drawn) [MB1067] | 68 | 28 |  |  |  | 
CCC1CCC(N)CC1 (stereo not drawn) [MB1016] | 61 | 35 |  |  |  | 
COC(=O)c1ccc(C)c(Cl)c1 [MB1307] | 31 | 62 |  |  |  | 
COC(=O)c1ccccc1OC(F)(F)F [MB1292] | 30 | 63 |  |  |  | 
O=P(O)(O)CCc1ccccc1 [4672-30-4, 2-phenylethyl phosphonic acid] |  |  |  |  |  | 2200 ± 400
O=C(O)CCc1ccccc1 [501-520-0, hydrocinnamic acid] |  |  |  |  |  | 2200 ± 900
NC(=O)Cc1ccc(F)cc1Cl [MB1321] | 28 | 65 |  |  |  | 
O=C(O)c1ccc2[nH]ncc2c1 [AT0541] | 38 | 56 |  |  |  | 
